Results from patent US20200207989A1, “FLUORESCENT PROBE FOR ALDH3A1 DETECTION” (The University of Tokyo, priority 2016, published 2020).

Key:
OE21 cells [1] = test: Flow cytometry of OE21 cells (positive rate); assay type: cell-based
Method: Flow cytometry was carried out using probe 5 and OE21 cells. The cells were treated using trypsin, and the cell density was measured after passing the cells through a cell strainer (40 μm, Corning). […] After centrifuging for three minutes at 1500 rpm and removing the supernatant after the reaction, the cells were washed with chilled medium, centrifuged, and the medium was removed. The cells were again suspended in 100 μL of medium, and 4 μL of SYTOX (registered trademark) Red Dead Cell Stain (Thermo Fisher) was added. After standing for five minutes on ice, 150 μL of medium was added. […] Analysis was carried out using FACS Canto II (BD Biosciences). Excitation was provided by a blue laser (488 nm), and the brightness of probe 5 was detected in each cell by FITC channel (515-545 nm). About 30,000 cells were analyzed in each sample after removing doublets and removing dead cells. The positive gate was set in a range from near to above the upper limit of brightness in the negative control according to ALDEFLUOR assay, so that at most 3% of the cells were present within the gate in the negative control sample. Three independent tests were run.
ALDH3A1 was knocked down using small interference RNA (siRNA) to confirm that the positive group in flow cytometry using 0E21 cells and compound 5 was due to ALDH3A1 activity, and flow cytometry was conducted. Two siRNAs confirmed to be effective (Silencer (registered trademark) Select, s1243 and s1244) and a negative control (Silencer® negative control #1) were purchased from Thermo Fisher. Lipofectamine® RNAiMAX as transfection reagent and Opti-MEM® as diluent were purchased from Thermo Fisher. According to the instruction manual, 300 μL of siRNA-Lipofectamine complex was produced according to the instruction manual so that siRNA was 10 nM and Lipofectamine was 3%, and 250 μL thereof was mixed with 2.5 mL of OE21 cell suspension and sown in six-well dishes. The effect of knockdown was confirmed after six days by Western blotting (FIG. 6a).
Lysates were produced using negative control cells (ctrl) in which ALDH3A1 was not knocked down and cells (KD) in which ALDH3A1 was permanently knocked down. Western blotting was carried out, and pronounced knockdown of ALDH3A1 was confirmed (FIG. 9a). […] The top 25% (top) and bottom 25% (bottom) of fluorescent brightness were sorted out by FACS Aria II using a sample in which the positive and negative were well separated. The respective lysates were produced, Western blotting was carried out using the same, and the expression levels of ALDH3A1 were compared (FIG. 9c).

ALDH3A1 = molecular target: T1, ALDH3A1 (Homo sapiens, UniProt P30838); test: Kinetic characteristics (Michaelis-Menten Km, Kcat) with ALDH3A1; assay type: biochemical; conditions: five minutes at 37° C., Tris buffer pH 7.5
T1 construct: purchased
T1 sequence (P30838 1-453): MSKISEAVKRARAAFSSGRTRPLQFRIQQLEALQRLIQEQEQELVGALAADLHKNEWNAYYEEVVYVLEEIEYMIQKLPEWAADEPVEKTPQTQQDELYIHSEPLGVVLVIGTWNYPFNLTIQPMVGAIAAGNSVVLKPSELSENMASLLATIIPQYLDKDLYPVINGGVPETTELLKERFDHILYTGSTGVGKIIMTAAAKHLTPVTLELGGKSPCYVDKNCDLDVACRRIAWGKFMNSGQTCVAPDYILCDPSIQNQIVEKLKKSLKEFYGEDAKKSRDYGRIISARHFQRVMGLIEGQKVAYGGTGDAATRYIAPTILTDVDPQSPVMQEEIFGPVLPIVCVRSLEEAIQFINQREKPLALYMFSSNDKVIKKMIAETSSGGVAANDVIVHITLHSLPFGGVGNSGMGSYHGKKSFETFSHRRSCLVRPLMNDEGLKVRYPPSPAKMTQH
Method: Human recombinant ALDH1A1/1A3/3A1 was purchased, and 100 mM of KCL, 2 mM of DTT, 1 mM of NAD(P), 10-100 nM of each ALDH, and 10-80 μM of each compound were mixed in Tris buffer (100 mM, pH 7.5), reacted for 30 minutes at 37° C., an equal amount of acetonitrile added, and the reaction stopped. The reaction solution was analyzed by UPLC/MS/MS (Waters). The UPCL chromatogram was carried out over five minutes at a flow rate of 800 μL/min by a linear gradient from 5% acetonitrile 0.01 M ammonium formate/water to 95% acetonitrile 0.01 M ammonium formate/water. An aldehyde-form and carboxylic acid-form probe were detected by the absorbance at a wavelength of 504 nm, and m/z of the MS spectrum at each peak was confirmed to agree with the expected m/z.
For the reaction, 100 mM of KCL, 2 mM of DTT, 1 mM of NAD(P), and five to six concentrations within the range of 10-100 nM of each ALDH and 0.1-80 μM of each probe were selected, mixed in Tris buffer (100 mM, pH 7.5), and reacted for five minutes at 37° C.; an equal amount of acetonitrile was added, and the reaction was stopped. Detection of the aldehyde-form/carboxylic acid-form probes was carried out using the same method as described above by UPLC/MS/MS. Km and Kcat were calculated by fitting the reaction rate at each probe concentration obtained to the Michaelis-Menten equation. A Kaleida Graph ver. 4.1 (Hulinks, Inc.) was used in fitting.
The Kcat ratio (Kcat of ALDH3A1/Kcat of ALDH1A1) was calculated for probe 1, probe 3, and probe 5 as an indicator of ALDH1A1/ALDH3A1 specificity because the probe reaction rate at the actual probe use concentration is believed to be close to Vmax since Km is relatively small (Table 5).

OE21 cells [2] = test: SYTOX Red Dead Cell Stain assay during flow cytometry; assay type: cell-based; conditions: OE21 shRNA cells, probe 5 with MK-571, SYTOX Red Dead Cell Stain
Method: Flow cytometry was carried out using probe 5 and OE21 cells. The cells were treated using trypsin, and the cell density was measured after passing the cells through a cell strainer (40 μm, Corning). A quantity of 500 μL of a cell suspension to make 2.5-5×10^5/mL in medium containing 40 μM of probe 5 was prepared and cultured for 90 minutes at 37° C. After centrifuging for three minutes at 1500 rpm and removing the supernatant after the reaction, the cells were washed with chilled medium, centrifuged, and the medium was removed. The cells were again suspended in 100 μL of medium, and 4 μL of SYTOX (registered trademark) Red Dead Cell Stain (Thermo Fisher) was added. After standing for five minutes on ice, 150 μL of medium was added. A sample with CB7 (10 μM) added was used as a negative control. Analysis was carried out using FACS Canto II (BD Biosciences). Excitation was provided by a blue laser (488 nm), and the brightness of probe 5 was detected in each cell by FITC channel (515-545 nm). About 30,000 cells were analyzed in each sample after removing doublets and removing dead cells. The positive gate was set in a range from near to above the upper limit of brightness in the negative control according to ALDEFLUOR assay, so that at most 3% of the cells were present within the gate in the negative control sample. Three independent tests were run. […]

[3] = 50 μM probe 5, 200 μM MK-571, CB7 20 μM control

## CCN(CCOCCNC(=O)c1ccc(-c2c3ccc(=O)cc-3oc3cc(O)ccc23)c(C)c1)c1ccc(C=O)cc1 [Probe 5, 2-(2-(N-ethyl-N-(4-formylphenyl)amino)ethoxy)ethyl-3-methyl-4-(6-hydroxyxanthen-3-on-9-yl)-benzamide]
OE21 cells [1]; 40 μM probe 5, 90 minutes at 37° C., no MK-571, gate set with CB7 10 μM control
  Positive rate in flow cytometry: 10-15%
OE21 cells [1]; [3]
  Positive rate in flow cytometry with MK-571, ALDH3A1 siRNA knockdown: around 10%
  Positive rate in flow cytometry with MK-571, cells treated by negative control siRNA: about 90%
OE21 cells [1]; 50 μM probe 5, MK-571 200 μM
  Positive rate in flow cytometry with MK-571: about 90%
ALDH3A1
  Km: 3.49 ± 0.55 µM
OE21 cells [2]
  Dead cells / cell death due to the probe: virtually no dead cells were found
